Results reported in patent US20250353873A1, “COMPOUNDS AND METHODS FOR MODULATING APOE EXPRESSION” (Ionis Pharmaceuticals, Inc., priority 2024, published 2025).
pIC50: −log10 of the molar value. Where “and” joins values, the source holds several entries; their conditions need not be identical. Equal entries are not always repeated. Strand notation (5' to 3'): a small letter for the sugar, then the base; units joined by * are phosphorothioate-linked, units joined directly phosphodiester-linked; [ ] holds rarer units or linkages, { } end groups; capitals alone tell only the bases. [ms] = mesyl phosphoramidate linkage; e = 2'-O-(2-methoxyethyl) (MOE); k = constrained ethyl (cEt); [5mC] = 5-methylcytosine; d = 2'-deoxy (DNA)

Experiments:
human APOE RNA [1] = test: Activity in APOE C57BL/6NTac-Apoeem7250 knock-in mice, single ICV bolus, 4 weeks (Example 10); format: in vivo; conditions: single ICV bolus 300 μg, 4 weeks post treatment, normalized to mouse Ppia
In short: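 Knock-in mice (2–4 per group) received one 300 μg ICV bolus of oligonucleotide or PBS. After four weeks, human APOE RNA in cortex and spinal cord measured by RT-qPCR (primer probe set RTS3073), normalized to mouse Ppia, expressed as % of PBS controls.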

human APOE RNA [2] = test: Activity in APOE C57BL/6NTac-Apoeem7250 knock-in mice, single ICV bolus, 20 weeks (Example 13); format: in vivo; conditions: single ICV bolus 300 μg, 20 weeks post treatment, normalized to mouse Ppia
Protocol: Modified oligonucleotides described above were tested in the APOE C57BL/6NTac-Apoeem7250 knock-in mouse model described above.
APOE C57BL/6NTac-Apoeem7250 knock-in mice were divided into groups of 4 mice each. Each mouse received a single ICV bolus of 300 μg of modified oligonucleotide. A group of 2-4 mice received a single ICV bolus with PBS as a negative control.
Twenty weeks post treatment, mice were sacrificed and RNA was extracted from cortical brain tissue and spinal cord for quantitative real-time RT-PCR analysis of RNA expression of APOE using human primer probe set RTS3073 (described herein above). APOE RNA levels were normalized to mouse Ppia. Mouse Ppia was amplified using primer probe set m_cyclo24 (described herein above). Results are presented as percent human APOE RNA relative to the amount of human APOE RNA in PBS treated animals, (% control). Each experiment is identified in separate tables below.

human APOE RNA [3] = test: Activity in APOE C57BL/6NTac-Apoeem7250 knock-in mice, single ICV bolus, 16 weeks (Example 12); format: in vivo; conditions: cortex; single ICV bolus 300 μg; 16 weeks post treatment; normalized to mouse Ppia
In short: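 Knock-in mice (3-4 per group) received one ICV bolus of 300 μg oligonucleotide, PBS as control. After 16 weeks, human APOE RNA in cortex and spinal cord measured by RT-qPCR, normalized to mouse Ppia, and reported as % of PBS control.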

human APOE RNA [4] = test: Activity in APOE C57BL/6NTac-Apoeem7250 knock-in mice, single ICV bolus, 8 weeks (Example 11); format: in vivo; conditions: single ICV bolus 300 μg, 8 weeks post treatment, normalized to mouse Ppia
In short: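 Human APOE knock-in C57BL/6NTac mice given one ICV bolus of 300 μg oligonucleotide; PBS-dosed group as control. At 8 weeks, cortex and spinal cord RNA measured by qRT-PCR (human probe RTS3073), normalized to mouse Ppia, expressed as % of PBS control.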

human APOE RNA [5] = test: Dose-dependent inhibition of human APOE RNA in HepG2 cells, electroporation, 50,000 cells per well, RT-PCR normalized to GAPDH (Example 4, Tables 8-10); format: cell-based; conditions: HepG2, electroporation, 16-hour treatment
In short: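 HepG2 cells, 50,000 per well, electroporated with modified oligonucleotide at various concentrations. APOE RNA quantified by RT-PCR with human primer probe set RTS3073, normalized to GAPDH. Values are percent APOE RNA relative to untreated control cells.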

Row | Substance | APOE RNA (% control) Cortex (human APOE RNA [1]) | APOE RNA (% control) Spinal Cord (human APOE RNA [1]) | APOE RNA (% control) Cortex (human APOE RNA [2]) | APOE RNA (% control) Spinal Cord (human APOE RNA [2]) | APOE RNA (% control) Cortex (human APOE RNA [3]) | APOE RNA (% control) Cortex (human APOE RNA [4]; cortex) | APOE RNA (% control) Spinal Cord (human APOE RNA [4]; spinal cord) | APOE RNA (% UTC) (human APOE RNA [5]; 5 nM) | APOE RNA (% UTC) (human APOE RNA [5]; 13 nM) | APOE RNA (% UTC) (human APOE RNA [5]; 33 nM) | APOE RNA (% UTC) (human APOE RNA [5]; 82 nM) | APOE RNA (% UTC) (human APOE RNA [5]; 205 nM) | APOE RNA (% UTC) (human APOE RNA [5]; 512 nM) | APOE RNA (% UTC) (human APOE RNA [5]; 1,280 nM) | APOE RNA (% UTC) (human APOE RNA [5]; 3,200 nM) | APOE RNA (% UTC) (human APOE RNA [5]; 8,000 nM) | APOE RNA (% UTC) (human APOE RNA [5]; 20,000 nM) | pIC50 (human APOE RNA [5])
1 | 1779699 (e[5mC]*eTeT*kG*kG*eT*dG[ms]dA[ms]dA[ms]dT*d[5mC]*dT*dT*dT*dA[ms]dT*eT*eA*eA*eA; antisense) [Compound 1779699] | 44 % control | 54 % control | 53 % control | 25 % control | – | – | – | – | – | – | – | – | – | – | – | – | – | –
2 | 1693144: 6-10-4 MOE gapmer ACTTGGTGAATCTTTATTAA, linkages soosssszzzssssszsss (eA*e[5mC]eTeT*eG*eG*dT*dG[ms]dA[ms]dA[ms]dT*d[5mC]*dT*dT*dT*dA[ms]eT*eT*eA*eA) [compound 1693144] | – | – | 65 % control | 71 % control | 113 % control and 61 % control | 67 % control | 43 % control | – | – | – | – | – | – | – | – | – | – | –
3 | 1757573 (eA*e[5mC]eTeT*eG*eG*dT*dG[ms]dA[ms]dA[ms]dT*d[5mC]*dT*dT*dT*dA[ms]kT*eT*eA*eA; antisense) [Compound 1757573] | 53 % control | 38 % control | 61 % control | 42 % control | – | – | – | – | – | – | – | – | – | – | – | – | – | –
4 | 1778110: 6-10-4 MOE gapmer ACTTGGTGAATCTTTATTAA, linkages soooosszzsssssszoss (eA*e[5mC]eTeTeGeG*dT*dG[ms]dA[ms]dA*dT*d[5mC]*dT*dT*dT*dA[ms]eTeT*eA*eA) [compound 1778110] | 51 % control | 51 % control | 81 % control | 35 % control | – | – | – | – | – | – | – | – | – | – | – | – | – | –
5 | 1785588 (k[5mC]*kT*kT*dG[ms]dG[ms]dT[ms]dG*dA*dA[ms]dT[ms]d[5mC]*dT*dT*dT*dA*dT*kT*kA*dA[ms]kA; antisense) [Compound 1785588] | 30 % control | 29 % control | 40 % control | 18 % control | – | – | – | – | – | – | – | – | – | – | – | – | – | –
6 | 1778108 (eA*e[5mC]eTeTeG*kG*dT*dG[ms]dA[ms]dA*dT*d[5mC]*dT*dT*dT*dA[ms]eT*eT*eA*eA; antisense) [Compound 1778108] | 60 % control | 41 % control | 70 % control | 21 % control | – | – | – | – | – | – | – | – | – | – | – | – | – | –
7 | 1779961 (e[5mC]*eTeT*kG[ms]kG*eT*dG[ms]dA[ms]dA[ms]dT*d[5mC]*dT*dT*dT*dA[ms]dT*eT*eA*eA*eA; antisense) [Compound 1779961] | 39 % control | 53 % control | 59 % control | 26 % control | – | – | – | – | – | – | – | – | – | – | – | – | – | –
8 | 1757581 (eT*eTeGeGkT*dG*dA*dA*dT*d[5mC]*dT*dT*dT*dA*dT*eTeAeA*eA*e[5mC]; antisense) [Compound 1757581] | – | – | 87 % control | 75 % control | – | – | – | 83 % UTC | 85 % UTC | 100 % UTC | 78 % UTC | 76 % UTC | 58 % UTC | 33 % UTC | 25 % UTC | 15 % UTC | 8 % UTC | 6.17
9 | 1757554: mixed MOE/cEt gapmer TTGGTGAATCTTTATTAA, sugar kkeeeddddddddeeeee, linkages soossssssssssooss (kT*kTeGeG*eT*dG*dA*dA*dT*d[5mC]*dT*dT*dT*eAeTeT*eA*eA) [compound 1757554] | – | – | 95 % control | 68 % control | – | – | – | 91 % UTC | 113 % UTC | 101 % UTC | 106 % UTC | 89 % UTC | 71 % UTC | 52 % UTC | 27 % UTC | 28 % UTC | 13 % UTC | 5.80
10 | 1757551: mixed MOE/cEt gapmer TTGGTGAATCTTTATTAA, sugar eeekkddddddddeeeee, linkages soossssssssssooss (eT*eTeGkG*kT*dG*dA*dA*dT*d[5mC]*dT*dT*dT*eAeTeT*eA*eA) [compound 1757551] | – | – | 93 % control | 53 % control | – | – | – | 91 % UTC | 248 % UTC | 88 % UTC | 55 % UTC | 52 % UTC | 41 % UTC | 35 % UTC | 29 % UTC | 14 % UTC | 9 % UTC | 6.37
11 | 1757562: mixed MOE/cEt gapmer TTGGTGAATCTTTATTAA, sugar eeeekddddddddkkeee, linkages soossssssssssooss (eT*eTeGeG*kT*dG*dA*dA*dT*d[5mC]*dT*dT*dT*kAkTeT*eA*eA) [compound 1757562] | – | – | 96 % control | 88 % control | – | – | – | 160 % UTC | 86 % UTC | 56 % UTC | 87 % UTC | 52 % UTC | 45 % UTC | 40 % UTC | 29 % UTC | 28 % UTC | 16 % UTC | 6.24
12 | 1757561: mixed MOE/cEt gapmer TTGGTGAATCTTTATTAA, sugar eeekkddddddddkeeee, linkages soossssssssssooss (eT*eTeGkG*kT*dG*dA*dA*dT*d[5mC]*dT*dT*dT*kAeTeT*eA*eA) [compound 1757561] | – | – | 92 % control | 64 % control | – | – | – | 96 % UTC | 191 % UTC | 240 % UTC | 104 % UTC | 130 % UTC | 71 % UTC | 45 % UTC | 38 % UTC | 35 % UTC | 12 % UTC | 5.68
13 | 1757544: mixed MOE/cEt gapmer TTGGTGAATCTTTATTAA, sugar ekeeeddddddddeeeee, linkages soossssssssssooss (eT*kTeGeG*eT*dG*dA*dA*dT*d[5mC]*dT*dT*dT*eAeTeT*eA*eA) [compound 1757544] | – | – | 101 % control | 96 % control | – | – | – | 104 % UTC | 86 % UTC | 100 % UTC | 111 % UTC | 90 % UTC | 75 % UTC | 59 % UTC | 42 % UTC | 26 % UTC | 12 % UTC | 5.66
